In patent US5801260A, “Carbonothioate phospholipid analogs as substrate of phospholipases and lipases” (priority 1995, dated 1998):

Legend:
[1] = target: T1, cobra venom phospholipase A2 (Naja atra, UniProt P00598); assay: Inhibition of phospholipase A2 by a reversible inhibitor, carbonothioate assay; type: biochemical; conditions: substrate 1-decanoyl-2-octylcarbonothioyl-sn-glycero-3-phosphocholine 0.5 mM, standard buffer with 4.24 mM Triton X-100; inhibitor 1 μM to 20 μM; FIG. 8
T1 construct: cobra venom phospholipase A2 (Naja naja atra); from tissue; host or cells: venom of Naja naja atra
T1 sequence (P00598 28-146 limits assumed): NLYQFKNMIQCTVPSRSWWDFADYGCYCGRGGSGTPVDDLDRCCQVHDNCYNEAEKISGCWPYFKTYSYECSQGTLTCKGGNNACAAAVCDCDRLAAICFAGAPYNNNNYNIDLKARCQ
Method: (§1) (b) Method: The desired amount of carbonothioate phospholipid in methylene chloride was evaporated to dryness under a stream of nitrogen. An appropriate volume of buffer A is added. This solution was sonicated in a bath sonicator to clearness. The assay was carried out at 40° C. A cuvette, containing 0.3 mL of assay mixture and 5 μL of DTNB was placed in the compartment of a spectrophotometer thermostated at 40° C. After equilibration of the substrate for 2 min at 40° C., a stable baseline was recorded for 150 sec. To initiate the reaction, cobra venom phospholipase A2 (Naja naja atra) (5 μL containing 125 ng protein in buffer B) was added to the cuvette and the reaction was recorded spectrophotometrically at 412 nm for 150 sec. The phospholipase activity is calculated using the extinction coefficient of 12,000 M^-1 cm^-1. Between each run, the cuvette is rinsed with Clorox, water and acetone.
Method: The appropriate volume of carbonothioate phospholipid in methylene chloride was dried under a stream of nitrogen. […] The enzymatic activity was determined similarly to Example 5 except that 500 ng enzyme was used.
A solution of 1-decanoyl-2-octylcarbonothioyl-sn-glycero-3-phosphocholine (1.0 mM) in buffer C was prepared as in Example 6. […] The enzymatic activity in the presence of the amide analog was determined as in Example 6.

[2] = target: T1, cobra venom phospholipase A2; assay: Inactivation of phospholipase A2 by an irreversible inhibitor, carbonothioate assay of residual activity; type: biochemical; conditions: enzyme preincubated with 100 μM inhibitor at 40° C.; substrate 1-decanoyl-2-octylcarbonothioyl-sn-glycero-3-phosphocholine 0.5 mM, 4.24 mM Triton X-100; FIG. 9
Method: as §1
Method: The appropriate volume of carbonothioate phospholipid in methylene chloride was dried under a stream of nitrogen. To prepare mixed micelles, the appropriate volume of buffer C was added, and the volume was brought to the final volume with buffer B. This solution was bath-sonicated to obtain a clear solution. The enzymatic activity was determined similarly to Example 5 except that 500 ng enzyme was used. […]

| SMILES | inhibition of cobra venom phospholipase A2 as determined by the carbonothioate assay [1] | inhibition of cobra venom phospholipase A2 as followed by the carbonothioate assay [2] |
| --- | --- | --- |
| CCCCCCCCCCCCCCCCSC[C@H](COP(=O)([O-])OCC[N+](C)(C)C)NC(=O)CCCCCCCCCCCCCCC [amide substrate analogs, 1-hexadecyl-thio-2-hexadecanoylamino-1,2-dideoxy-sn-glycero-3-phosphocholine] | inhibition |  |
| CCCCCCCCCC(=O)OCC(COP(=O)([O-])OCC[N+](C)(C)C)OC(=O)CC(C)(C)CC(=O)Oc1ccc([N+](=O)[O-])cc1 (centres unmarked) [irreversible inhibitor] |  | time-dependent inhibition |
